# Laboratory results from publication PMC8386742, “Discovery of N-aryl sulphonamide-quinazoline derivatives as anti-gastric cancer agents in vitro and in vivo via activating the Hippo signalling pathway” (Journal of Enzyme Inhibition and Medicinal Chemistry, 2021).
# What was measured:
# MGC-803 cells = experiment: MTT antiproliferative assay, MGC-803 cells; type: cell-based, human; settings: exposure for 48 h
# Description: (§1) The in vitro antiproliferative activities of new target compounds 6a–6g, 9a–9i, 10a–10j, 11a–11j, and 14a–14d were evaluated against four human cancer cell lines (MGC-803, PC-3, HCT-116, and MCF-7) using MTT assay and 5-FU as a positive drug. The following Tables 1–[4] depicted the results of in vitro antiproliferative activity.
# (§2) Cell lines used were cultured in humidified incubator in a humidified atmosphere of 5% CO2 and 95% air. The RPMI-1640 medium was supplemented with 10% foetal bovine serum, penicillin (100 U/ml) and streptomycin (0.1 mg/ml).
# (§3) Cell lines were seeded into 96-well plates and incubated for 24 h. Then cells were treated with different concentrations of compounds. And after another 48 h, MTT reagent (20 μL per well) was added to each well and then incubated at 37 °C for 4 h. After the suspension was discarded, formazan was then dissolved with DMSO. Absorbencies of formazan solution were measured at 490 nm. The IC50 values of tested compounds were calculated by SPSS version 17.0.
# HCT-116 cells = experiment: MTT antiproliferative assay, HCT-116 cells; type: cell-based, human; settings: Homo sapiens, HCT-116, 48 h, exposure for 48 h
# Description: as §1, §2, §3
# PC-3 cells = experiment: MTT antiproliferative assay, PC-3 cells; type: cell-based, human; settings: Homo sapiens, PC-3, exposure for 48 h
# Description: as §1, §2, §3
# MCF-7 cells = experiment: MTT antiproliferative assay, MCF-7 cells; type: cell-based, human; settings: Homo sapiens, MCF7, 48 h, exposure for 48 h
# Description: as §1, §2, §3
Structure (SMILES),"IC50 (MGC-803 cells; Homo sapiens, MGC-803, 48 h)",IC50 (HCT-116 cells),IC50 (PC-3 cells),IC50 (MCF-7 cells),melting point,IC50 (MGC-803 cells)
"COc1ccc(S(=O)(=O)N(Cc2ccccc2)c2cc(OC)c(OC)c(OC)c2)cc1 [Compound 9a, N-benzyl-4-methoxy-N-(3,4,5-trimethoxyphenyl) benzene-sulfonamide]",8.57 ± 1.62 µM,18.8 ± 1.72 µM,16.2 ± 1.06 µM,24.5 ± 0.61 µM,161 to 162 °C,–
"COc1cc(N(Cc2nc(C)c3ccccc3n2)S(=O)(=O)c2ccc(C)cc2)cc(OC)c1OC [Compound 10e, 4-Methyl-N-((4-methylquinazolin-2-yl)methyl)-N-(3,4,5-trimethoxyphenyl) benzene-sulfonamide]",1.04 µM,2.48 ± 0.12 µM,4.01 ± 0.07 µM,1.68 ± 0.12 µM,182 to 183 °C,1 ± 0.08 µM
"COc1cc(N(Cc2nc(C)c3ccccc3n2)S(=O)(=O)c2ccc(Br)cc2)cc(OC)c1OC [Compound 10c, 4-Bromo-N-((4-methylquinazolin-2-yl)methyl)-N-(3,4,5-trimethoxyphenyl) benzene-sulfonamide]",0.82 ± 0.11 µM,1.49 ± 0.22 µM,1.81 ± 0.26 µM,1.4 ± 0.25 µM,170 to 171 °C,–
"COc1cc(N(Cc2nc(C)c3ccccc3n2)S(=O)(=O)c2ccc(F)cc2)cc(OC)c1OC [Compound 10b, 4-Fluoro-N-((4-methylquinazolin-2-yl)methyl)-N-(3,4,5-trimethoxyphenyl) benzene-sulfonamide]",0.92 ± 1.07 µM,3.84 ± 0.14 µM,4.72 ± 1.02 µM,5.46 ± 0.87 µM,162 to 163 °C,–
COc1ccc(CN(c2cc(OC)c(OC)c(OC)c2)S(=O)(=O)c2ccc(C)cc2)cc1 [Compound 6c],4.32 ± 0.65 µM,6.18 ± 0.61 µM,8.81 ± 0.98 µM,11.2 ± 1.02 µM,–,–
COc1ccc(CN(c2cc(OC)c(OC)c(OC)c2)S(=O)(=O)c2ccccc2)cc1 [Compound 6d],> 40 µM,> 40 µM,> 40 µM,> 40 µM,–,–
"COc1cc(N(Cc2nc(C)c3ccccc3n2)S(=O)(=O)c2ccccn2)cc(OC)c1OC [Compound 10j, N-((4-Methylquinazolin-2-yl)methyl)-N-(3,4,5-trimethoxyphenyl)pyridine-2-sulphonamide]",14.7 ± 1.88 µM,24.8 ± 2.13 µM,28.2 ± 1.98 µM,34.2 ± 1.83 µM,159 to 160 °C,–
"COc1cc(N(Cc2nc(C)c3ccccc3n2)S(=O)(=O)c2cccs2)cc(OC)c1OC [Compound 10i, N-((4-Methylquinazolin-2-yl)methyl)-N-(3,4,5-trimethoxyphenyl)thiophene-2-sulphonamide]",16.8 ± 1.42 µM,20.4 ± 1.92 µM,27.8 ± 2.02 µM,30.2 ± 1.81 µM,151 to 152 °C,–
"COc1ccc(S(=O)(=O)N(Cc2ccc(C)cc2)c2cc(OC)c(OC)c(OC)c2)cc1 [Compound 9d, 4-Methoxy-N-(4-methylbenzyl)-N-(3,4,5-trimethoxyphenyl) benzene-sulphonamide]",5.83 ± 1.75 µM,11.9 ± 2.26 µM,15.6 ± 1.57 µM,41.8 ± 0.43 µM,164 to 165 °C,–
"COc1ccc(CN(c2cc(OC)c(OC)c(OC)c2)S(=O)(=O)c2cccs2)cc1 [Compound 6f, N-(4-methoxybenzyl)-N-(3,4,5-trimethoxyphenyl) thiophene-2-sulphonamide]",28.3 ± 2.86 µM,38.1 ± 2.64 µM,38.7 ± 2.87 µM,26.1 ± 1.87 µM,–,–
"COc1cc(N(Cc2nc(C)c3ccccc3n2)S(=O)(=O)c2ccc(C(C)(C)C)cc2)cc(OC)c1OC [Compound 10g, 4-(Tert-butyl)-N-((4-methylquinazolin-2-yl)methyl)-N-(3,4,5-trimethoxyphenyl) benzene-sulfonamide]",12.8 ± 1.38 µM,22.4 ± 1.67 µM,18.9 ± 1.57 µM,28.1 ± 1.82 µM,144 to 145 °C,–
"COc1ccc(S(=O)(=O)N(Cc2ccc(Cl)cc2)c2cc(OC)c(OC)c(OC)c2)cc1 [Compound 9b, N-(4-chlorobenzyl)-4-methoxy-N-(3,4,5-trimethoxyphenyl) benzene-sulphonamide]",19.2 ± 1.07 µM,23 ± 5.25 µM,36.1 ± 0.01 µM,23.4 ± 1.53 µM,172 to 173 °C,–
"COc1cc(N(Cc2nc(C)c3ccccc3n2)S(=O)(=O)c2ccccc2)cc(OC)c1OC [Compound 10a, N-((4-methylquinazolin-2-yl)methyl)-N-(3,4,5-trimethoxyphenyl) benzene-sulphonamide]",6.62 ± 0.82 µM,16.7 ± 1.03 µM,28.2 ± 2.12 µM,> 50 µM,178 to 179 °C,–
"COc1cc(N(Cc2nc(C)c3ccccc3n2)S(=O)(=O)c2ccccc2Cl)cc(OC)c1OC [Compound 10d, 2-Chloro-N-((4-methylquinazolin-2-yl)methyl)-N-(3,4,5-trimethoxyphenyl) benzene-sulfonamide]",> 50 µM,18.7 ± 1.27 µM,> 50 µM,22.1 ± 0.31 µM,183 to 184 °C,–
"COc1ccc(S(=O)(=O)N(Cc2ccc(Br)cc2)c2cc(OC)c(OC)c(OC)c2)cc1 [Compound 9c, N-(4-bromobenzyl)-4-methoxy-N-(3,4,5-trimethoxyphenyl) benzene-sulphonamide]",31.1 ± 0.79 µM,> 50 µM,28 ± 2.76 µM,33.8 ± 1.39 µM,187 to 188 °C,–
"COc1ccc(S(=O)(=O)N(Cc2c(C)noc2C)c2cc(OC)c(OC)c(OC)c2)cc1 [Compound 9h, N-((3,5-dimethylisoxazol-4-yl)methyl)-4-methoxy-N-(3,4,5-trimethoxyphenyl) benzene-sulfonamide]",5.48 ± 0.58 µM,12.1 ± 0.85 µM,8.28 ± 3.4 µM,11.5 ± 1.03 µM,–,–

# Next, values leading:
"IC50 (MGC-803 cells; Homo sapiens, MGC-803, 48 h)",IC50 (HCT-116 cells),IC50 (PC-3 cells),IC50 (MCF-7 cells),melting point,IC50 (MGC-803 cells),Structure (SMILES)
44.6 ± 1.41 µM,46.9 ± 1.84 µM,> 50 µM,> 50 µM,85 to 86 °C,–,"COc1ccc(S(=O)(=O)N(Cc2nc(C)c3ccccc3n2)c2ccccc2)cc1 [Compound 14a, 4-Methoxy-N-((4-methylquinazolin-2-yl)methyl)-N-phenylbenzene-sulphonamide]"
14.1 ± 1.01 µM,18.9 ± 1.23 µM,31.1 ± 2.04 µM,29.7 ± 1.83 µM,162 to 163 °C,–,"COc1cc(N(Cc2nc(C)c3ccccc3n2)C(=O)c2ccc(F)cc2)cc(OC)c1OC [Compound 11b, 4-Fluoro-N-((4-methylquinazolin-2-yl)methyl)-N-(3,4,5-trimethoxyphenyl) benzamide]"
13.6 ± 1.24 µM,20.4 ± 1.23 µM,26.8 ± 1.32 µM,28.1 ± 1.47 µM,182 to 183 °C,–,"COc1cc(N(Cc2nc(C)c3ccccc3n2)C(=O)c2ccc(Br)cc2)cc(OC)c1OC [Compound 11c, 4-Bromo-N-((4-methylquinazolin-2-yl)methyl)-N-(3,4,5-trimethoxyphenyl) benzamide]"
32.8 ± 2.12 µM,28.5 ± 2.64 µM,> 40 µM,> 40 µM,209 to 210 °C,–,"COc1cc(N(Cc2nc(C)c3ccccc3n2)C(=O)c2c(C)cc(C)cc2C)cc(OC)c1OC [Compound 11f, 2,4,6-Trimethyl-N-((4-methylquinazolin-2-yl)methyl)-N-(3,4,5-trimethoxyphenyl) benzamide]"
16.8 ± 2.02 µM,20.4 ± 1.92 µM,> 40 µM,> 40 µM,129 to 130 °C,–,"COc1cc(C(=O)N(Cc2nc(C)c3ccccc3n2)c2cc(OC)c(OC)c(OC)c2)cc(OC)c1OC [Compound 11i, 3,4,5-Trimethoxy-N-((4-methylquinazolin-2-yl)methyl)-N-(3,4,5-trimethoxyphenyl) benzamide]"
> 40 µM,> 40 µM,> 40 µM,> 40 µM,190 to 191 °C,–,"COc1cc(N(Cc2nc(C)c3ccccc3n2)C(=O)c2ccccc2Cl)cc(OC)c1OC [Compound 11d, 2-Chloro-N-((4-methylquinazolin-2-yl)methyl)-N-(3,4,5-trimethoxyphenyl) benzamide]"
5.82 ± 1.17 µM,10.4 ± 1.04 µM,18.7 ± 1.38 µM,22.4 ± 1.54 µM,–,–,"COc1ccc(C(=O)N(Cc2nc(C)c3ccccc3n2)c2cc(OC)c(OC)c(OC)c2)cc1 [Compound 11h, 4-Methoxy-N-((4-methylquinazolin-2-yl)methyl)-N-(3,4,5-trimethoxyphenyl) benzamide]"
14.7 ± 1.88 µM,24.8 ± 2.13 µM,> 40 µM,> 40 µM,136 to 137 °C,–,"COc1cc(N(Cc2nc(C)c3ccccc3n2)C(=O)c2cccs2)cc(OC)c1OC [Compound 11j, N-((4-methylquinazolin-2-yl)methyl)-N-(3,4,5-trimethoxyphenyl)thiophene-2-carboxamide]"
18.5 ± 1.17 µM,19.8 ± 1.49 µM,25.3 ± 1.78 µM,25.3 ± 1.78 µM,112 to 113 °C,–,"COc1cc(N(Cc2nc(C)c3ccccc3n2)C(=O)c2ccccc2)cc(OC)c1OC [Compound 11a, N-((4-Methylquinazolin-2-yl)methyl)-N-(3,4,5-trimethoxyphenyl) benzamide]"
10.8 ± 1.18 µM,–,24.9 ± 1.41 µM,18.6 ± 1.32 µM,196 to 197 °C,–,"COc1cc(N(Cc2nc(C)c3ccccc3n2)C(=O)c2ccc(C)cc2)cc(OC)c1OC [Compound 11e, 4-Methyl-N-((4-methylquinazolin-2-yl)methyl)-N-(3,4,5-trimethoxyphenyl) benzamide]"
